Results reported in patent US6610733B2, “Optically active chroman and thiochroman derivatives” (Chugai Seiyaku Kabushiki Kaisha, priority 1999, dated 2003).

System: estradiol-induced increase in uterine weight
Assay: Anti-estrogenic activity (oral administration): inhibition of estradiol-induced increase in uterine weight in ovariectomized mice
Format: in vivo, mice (ICR)
Settings: ovariectomized mice given 17β-estradiol-benzoate 0.1 μg/mouse s.c. for 3 days, test compound 10 mg/kg p.o., once a day, uterine weight 24 hours after last administration
Procedure: Test compounds were assayed for their oral anti-estrogenic activity in the following manner. In this experiment, the compounds prepared in Examples 2 and 3 were used as test compounds and the corresponding racemic mixture (10-[(3RS,4RS)-7-hydroxy-3-(4-hydroxyphenyl)-3-methylthiochroman-4-yl]-2-(4,4,5,5,5-pentafluoropentyl)decanoic acid was used as a control compound. This control compound was synthesized according to Reaction Schemes 1 to 7 mentioned above.
In this experiment, each of the test and control compounds was suspended in 5% arabic gum solution and orally administered for 3 days on a once-a-day basis. After 24 hours from the last administration, the test animals were sacrificed and the uteri were removed and weighed.

## C[C@@]1(c2ccc(O)cc2)CSc2cc(O)ccc2[C@@H]1CCCCCCCCC(CCCC(F)(F)C(F)(F)F)C(=O)O (single isomer, unassigned) [Example 10, Peak 1]
10 mg/kg
  Inhibition (%): 87%

## C[C@@]1(c2ccc(O)cc2)CSc2cc(O)ccc2[C@@H]1CCCCCCCCC(CCCC(F)(F)C(F)(F)F)C(=O)O (single isomer, unassigned) [Example 10, Peak 2]
10 mg/kg
  Inhibition (%): 78%

## C[C@@]1(c2ccc(O)cc2)CSc2cc(O)ccc2[C@@H]1CCCCCCCCC(CCCC(F)(F)C(F)(F)F)C(=O)O (stereo partly drawn) [Example 2, 10-[(3R,4R)-7-Hydroxy-3-(4-hydroxyphenyl)-3-methylthiochroman-4-yl]-2-(4,4,5,5,5-pentafluoropentyl)decanoic Acid]
  Inhibition (%): 90%

## C[C@]1(c2ccc(O)cc2)CSc2cc(O)ccc2[C@H]1CCCCCCCCC(CCCC(F)(F)C(F)(F)F)C(=O)O (stereo partly drawn) [Example 3, 10-[(3S,4S)-7-Hydroxy-3-(4-hydroxyphenyl)-3-methylthiochroman-4-yl]-2-(4,4,5,5,5-pentafluoropentyl)decanoic Acid]
  Inhibition (%): 69%

## C[C@@]1(c2ccc(O)cc2)CSc2cc(O)ccc2[C@@H]1CCCCCCCCC(CCCC(F)(F)C(F)(F)F)C(=O)O (mixture of isomers) [10-[(3RS,4RS)-7-hydroxy-3-(4-hydroxyphenyl)-3-methylthiochroman-4-yl]-2-(4,4,5,5,5-pentafluoropentyl)decanoic acid, reference compound]
  Inhibition (%): 75%
